Measurements reported in patent US9232800B2.
Marks after values point to notes of the source that are not given here.

Test system: Meloidogyne incognita nematodes
Test: Miniaturized greenhouse nematicidal efficacy assay (cucumber seedlings in sand, root gall rating)
[1] = 0.5 ppm, test a, average of triplicate gall ratings (scale 0-3, % root mass galled)
[2] = 0.5 ppm, test b, average of triplicate gall ratings (scale 0-3, % root mass galled)
[3] = 1 ppm, test a, average of triplicate gall ratings (scale 0-3, % root mass galled)
[4] = 1 ppm, test b, average of triplicate gall ratings (scale 0-3, % root mass galled)
[5] = 8 ppm, test a, average of triplicate gall ratings (0=0-5%, 1=6-20%, 2=21-50%, 3=51-100% root mass galled), harvest 10 to 12 days after inoculation
[6] = 8 ppm, test b, average of triplicate gall ratings (scale 0-3, % root mass galled)

| Molecule | 8/1/0.5 ppm gall ratings* [1] | 8/1/0.5 ppm gall ratings* [2] | 8/1/0.5 ppm gall ratings* [3] | 8/1/0.5 ppm gall ratings* [4] | 8/1/0.5 ppm gall ratings* [5] | 8/1/0.5 ppm gall ratings* [6] |
| --- | --- | --- | --- | --- | --- | --- |
| c1ccc(C2=NOC(c3ccco3)N2)cc1 (stereo not shown) [Ia-ii, 5-(furan-2-yl)-3-phenyl-4,5-dihydro-1,2,4-oxadiazole] | 2.67 | 2.33 | 2.00 | 0.67 | 0.00 | 0.00 |
| Clc1ccc(C2=NOC(c3ccoc3)N2)cc1 (stereo not shown) [Ib-iv, 3-(4-chlorophenyl)-5-(furan-3-yl)-4,5-dihydro-1,2,4-oxadiazole] |  | 2.67 |  | 1.33 |  | 0.00 |
| Abamectin [reference compound] |  |  | 1.67^a |  |  |  |
| c1ccc(C2=NOC(c3cccs3)N2)cc1 (stereo not shown) [Ia-i, 3-phenyl-5-(thiophen-2-yl)-4,5-dihydro-1,2,4-oxadiazole] | 2.33 | 2.67 | 1.33 | 1.67 | 0.00 | 0.00 |
| Clc1cccc(C2NC(c3cccs3)=NO2)c1 (stereo not shown) [IIa-ii, 5-(3-chlorophenyl)-3-(thiophen-2-yl)-4,5-dihydro-1,2,4-oxadiazole] |  | 3.00 |  | 2.33 |  | 0.33 |
| Clc1ccc(C2=NOC(c3ccco3)N2)c(Cl)c1 (stereo not shown) [Ia-ix, 3-(2,4-dichlorophenyl)-5-(furan-2-yl)-4,5-dihydro-1,2,4-oxadiazole] |  | 3.00 |  | 2.33 |  | 0.00 |
| Clc1ccc(C2=NOC(c3ccco3)N2)cc1 (stereo not shown) [Ia-iii, 3-(4-chlorophenyl)-5-(furan-2-yl)-4,5-dihydro-1,2,4-oxadiazole] |  | 3.00 |  | 1.67 |  | 0.00 |
| Cc1cc(Cl)ccc1C1=NOC(c2ccco2)N1 (stereo not shown) [Ia-iv, 3-(4-chloro-2-methylphenyl)-5-(furan-2-yl)-4,5-dihydro-1,2,4-oxadiazole] |  | 2.67 |  | 1.67 |  | 0.00 |
| Fc1ccc(C2=NOC(c3cccs3)N2)cc1 (stereo not shown) [Ia-v, 3-(4-fluorophenyl)-5-(thiophen-2-yl)-4,5-dihydro-1,2,4-oxadiazole] |  | 1.67 |  | 0.00 |  | 0.00 |
| Cc1cc(Cl)ccc1C1NC(c2ccco2)=NO1 (stereo not shown) [IIa-iii, 5-(4-chloro-2-methylphenyl)-3-(furan-2-yl)-4,5-dihydro-1,2,4-oxadiazole] |  | 2.33 |  | 1.67 |  | 0.00 |
